Measured values from PubChem BioAssay AID2060610 (Molecular Pharmacology Branch, DTP, NCI, 2025).
pIC50: −log10 of the molar value.

Test system: 616215-338-R-J1-PDC complex spheroids, viability % test/control
Test: Anticancer human tumor 616215-338-R-J1-PDC patient-derived colon adenocarcinoma cell line growth inhibition [CLK]
Settings: for pIC50: curve of first compound; for viability, T/C: stronger effect = lower value
Description: A high-throughput screen of multi-cell type tumor spheroids was designed to identify active combinations of […] and targeted small molecules. Complex spheroids include a stromal component modeled by human endothelial cells (HUVEC) and fibroblasts modeled by human mesenchymal stem cells (MSCs). The concentration ranges selected for each drug and investigational agent were based upon clinically achievable concentrations if the clinical Cmax of the agent was known.
Compounds. The drugs and investigational agents: cirtuvivint (SM08502; NSC835563), CC-671 (NSC850746), vemurafenib (NSC761431), tapotoclax (NSC804041), sotorasib (NSC818433), adagrasib (NSC831453), MRTX-1133 (NSC836407), BAY2416964 (NSC825713), copanlisib (NSC816437), inavolisib (NSC800729), abemaciclib (NSC768073), osimertinib (NSC779217), entinostat (NSC756642), eltanexor (KPT-8602, NSC794443), venetoclax (NSC766270), ceralasertib (NSC777638), bortezomib (NSC756655), olaparib (NSC753686), talazoparib (NSC767125), alisertib (NSC759677), peposertib (NSC802822), gemcitabine (NSC613327), 5-fluorouracil (NSC19893), SN-38 (NSC673596), oxaliplatin (NSC266046), paclitaxel (NSC125973), and doxorubicin (NSC123127), were obtained from the National Cancer Institute (NCI) Developmental Therapeutics Program Chemical Repository. The FDA-approved anticancer drug set is available from the Developmental Therapeutics Program at https://dtp.cancer.gov/organization/dscb/obtaining/available plates.htm. […] The stock solutions were prepared in dimethyl sulfoxide (DMSO, Sigma-Aldrich, St. Louis, MO, cat. D2650), except for the platinum complexes which were prepared in saline (Quality Biological, Gaithersburg, MD, cat. 114-055-101), at 800-fold the tested concentration and stored at -70 degrees C prior to their use. All drugs and investigational agents were tested over a range starting from a high concentration at or near the clinical Cmax and decreasing in half-log increments. If the clinical Cmax for an agent had not been determined, the highest concentration tested was 10 microM.
Cell Culture. All cells were maintained in an incubator at 37 degrees C and 5% CO2 with 95% humidity. The PDC lines were cultured according to standard operating procedures established by the NCI PDMR. Briefly, all PDCs were thawed and cultured in Matrigel-coated flasks prepared with a working solution of 1X Ham's F-12 nutrient mix, without supplementation (Invitrogen, Waltham, MA, cat. 11765054), 100 U/mL penicillin-streptomycin (Invitrogen, cat. 15140122), and 2.5% Matrigel (Corning Inc., Corning, NY, cat. 354248) for the first three passages. The 947758-054-R-J2-PDC line was cultured in 6B/Colon 1A media, which includes advanced DMEM/F-12 (Thermo Fisher Scientific, cat. 12634028), 10 mM HEPES (Thermo Fisher Scientific, cat. 15630080), 1X GlutaMAX supplement (Thermo Fisher Scientific, cat. 35050061), 0.1 mg/mL primocin (InvivoGen, cat. ant-pm-2), 10% defined fetal bovine serum, heat inactivated (HyClone Laboratories Inc., cat. SH30070.03HI), 1.25 mM N-Acetyl-L-cysteine (Sigma-Aldrich, cat. A9165), 10 mM nicotinamide (Sigma-Aldrich, cat. N0636), 1X B-27 supplement (Thermo Fisher Scientific, cat. 17504044), 1X N-2 supplement (Thermo Fisher Scientific, cat. 17502048), and 10 microM Y-27632 dihydrochloride (Tocris Bioscience, cat. 1254). The 876862-298-R-J1-PDC was cultured in 6E media, which includes all 6B/Colon 1A media components plus 50% L-WRN conditioned media (ATCC, cat. CRL-3276), 50 ng/mL recombinant human EGF recombinant protein (hEGF; Thermo Fisher Scientific, cat. PHG0311), 10 ng/mL recombinant human fibroblast growth factor 10 (hGFG-10; PeproTech, cat. 100-26), 1 ng/mL recombinant human fibroblast growth factor 2 (hFGF-2; PeproTech, cat. 100-18B), and 1 µM prostaglandin E2 (PGE2; Tocris, cat. 2296). The 227483-062-R1-J1-PDC line was cultured in Panc media, containing all 6E components except hFGF-2, with the addition of 500 nM SB-431542 (Selleckchem, cat. S1067) and 10 nM gastrin (Tocris, cat. 3006). […]

[1] = second compound 0.0316 µM, first compound 0.00949 µM
[2] = second compound 0.0316 µM, first compound 0.03 µM
[3] = second compound 0.0316 µM, first compound 0.0949 µM
[4] = second compound 0.0316 µM, first compound 0.3 µM
[5] = second compound 0.1 µM, first compound 0.00949 µM
[6] = second compound 0.1 µM, first compound 0.03 µM
[7] = second compound 0.1 µM, first compound 0.0949 µM
[8] = second compound 0.1 µM, first compound 0.3 µM
[9] = second compound 0.316 µM, first compound 0.00949 µM
[10] = second compound 0.316 µM, first compound 0.03 µM
[11] = second compound 0.316 µM, first compound 0.0949 µM
[12] = second compound 0.316 µM, first compound 0.3 µM
[13] = second compound 1 µM, first compound 0.00949 µM
[14] = second compound 1 µM, first compound 0.03 µM
[15] = second compound 1 µM, first compound 0.0949 µM
[16] = second compound 1 µM, first compound 0.3 µM
[17] = second compound 3.16 µM, first compound 0.00949 µM
[18] = second compound 3.16 µM, first compound 0.03 µM
[19] = second compound 3.16 µM, first compound 0.0949 µM
[20] = second compound 3.16 µM, first compound 0.3 µM
[21] = second compound 10 µM, first compound 0.00949 µM
[22] = second compound 10 µM, first compound 0.03 µM
[23] = second compound 10 µM, first compound 0.0949 µM
[24] = second compound 10 µM, first compound 0.3 µM
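Note: spheroids exposed to agents for 7 days.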
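Throughout, for viability, T/C: 100% = DMSO vehicle wells.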

NC(=O)C(=Cn1cnc(-c2cc(C(F)(F)F)cc(C(F)(F)F)c2)n1)c1cncnc1 + CN1CCN(c2cc(C(=O)Nc3cc4cc(-c5cnn(C)c5)ccc4cn3)ccn2)CC1
pIC50 (second compound 0.0316 µM): 6.66 | pIC50 (second compound 0.1 µM): 6.99 | pIC50 (second compound 0.316 µM): > 8.02 | pIC50 (second compound 1 µM): > 8.02 | pIC50 (second compound 3.16 µM): > 8.02 | pIC50 (second compound 10 µM): > 8.02 | viability, T/C [1]: 113% | viability, T/C [2]: 114% | viability, T/C [3]: 74.5% | viability, T/C [4]: 41.2% | viability, T/C (second compound 0.0316 µM, first compound 0.949 µM): 19.1% | viability, T/C (second compound 0.0316 µM, first compound 3 µM): 9.26% | viability, T/C [5]: 104% | viability, T/C [6]: 80.3% | viability, T/C [7]: 53.4% | viability, T/C [8]: 24.4% | viability, T/C (second compound 0.1 µM, first compound 0.949 µM): 9.65% | viability, T/C (second compound 0.1 µM, first compound 3 µM): 2.06% | viability, T/C [9]: 13.1% | viability, T/C [10]: 10.7% | viability, T/C [11]: 1.47% | viability, T/C [12]: 0.24% | viability, T/C (second compound 0.316 µM, first compound 0.949 µM): 0.92% | viability, T/C (second compound 0.316 µM, first compound 3 µM): 2.69% | viability, T/C [13]: 0.11% | viability, T/C [14]: 0.13% | viability, T/C [15]: 1.63% | viability, T/C [16]: 0.1% | viability, T/C (second compound 1 µM, first compound 0.949 µM): 0.37% | viability, T/C (second compound 1 µM, first compound 3 µM): 0.09% | viability, T/C [17]: 0.08% | viability, T/C [18]: 0.11% | viability, T/C [19]: 0.16% | viability, T/C [20]: 0.13% | viability, T/C (second compound 3.16 µM, first compound 0.949 µM): 0.13% | viability, T/C (second compound 3.16 µM, first compound 3 µM): 2.73% | viability, T/C [21]: 0.1% | viability, T/C [22]: 0.13% | viability, T/C [23]: 0.41% | viability, T/C [24]: 0.23% | viability, T/C (second compound 10 µM, first compound 0.949 µM): 0.23% | viability, T/C (second compound 10 µM, first compound 3 µM): 1.29%

CC(C)CC(NC(=O)C(Cc1ccccc1)NC(=O)c1cnccn1)B(O)O (centres undefined) + CNC(=O)c1ccc(Nc2nc(OC3CCCC3)c3c(-c4ccc5nc(C)oc5c4)c[nH]c3n2)c(OC)c1
pIC50 (second compound 0.0316 µM): 8.27 | pIC50 (second compound 0.1 µM): 8.37 | pIC50 (second compound 0.316 µM): > 9.02 | pIC50 (second compound 1 µM): > 9.02 | pIC50 (second compound 3.16 µM): > 9.02 | pIC50 (second compound 10 µM): > 9.02 | viability, T/C (second compound 0.0316 µM, first compound 0.000949 µM): 93.4% | viability, T/C (second compound 0.0316 µM, first compound 0.003 µM): 110% | viability, T/C [1]: 0.37% | viability, T/C [2]: 0.24% | viability, T/C [3]: 0.24% | viability, T/C [4]: 1.23% | viability, T/C (second compound 0.1 µM, first compound 0.000949 µM): 55.6% | viability, T/C (second compound 0.1 µM, first compound 0.003 µM): 88.9% | viability, T/C [5]: 0.21% | viability, T/C [6]: 0.22% | viability, T/C [7]: 0.18% | viability, T/C [8]: 0.5% | viability, T/C (second compound 0.316 µM, first compound 0.000949 µM): 45.9% | viability, T/C (second compound 0.316 µM, first compound 0.003 µM): 38.4% | viability, T/C [9]: 0.2% | viability, T/C [10]: 0.18% | viability, T/C [11]: 0.15% | viability, T/C [12]: 0.86% | viability, T/C (second compound 1 µM, first compound 0.000949 µM): 45.3% | viability, T/C (second compound 1 µM, first compound 0.003 µM): 29.9% | viability, T/C [13]: 0.19% | viability, T/C [14]: 0.15% | viability, T/C [15]: 1.71% | viability, T/C [16]: 1.14% | viability, T/C (second compound 3.16 µM, first compound 0.000949 µM): 45.7% | viability, T/C (second compound 3.16 µM, first compound 0.003 µM): 18.6% | viability, T/C [17]: 0.16% | viability, T/C [18]: 0.16% | viability, T/C [19]: 0.18% | viability, T/C [20]: 1.5% | viability, T/C (second compound 10 µM, first compound 0.000949 µM): 45.9% | viability, T/C (second compound 10 µM, first compound 0.003 µM): 19.5% | viability, T/C [21]: 0.22% | viability, T/C [22]: 0.18% | viability, T/C [23]: 1.53% | viability, T/C [24]: 2.83%
